Source: US11572377B2, “Nucleotide analogs” (The Regents of the University of California, priority 2015, dated 2023)
Like-named read-outs stand apart in the source and are kept apart here.

Assays:
HPV-11 = assay: Low risk HPV assay: HPV origin plasmid replication in HEK 293 cells (qPCR); format: cell-based, human papillomavirus
Experimental: (§1) An origin-containing low risk or high risk HPV plasmid was co-transfected with homologous E1 and E2 protein expression vectors into HEK 293 cells. At 4 h post-transfection, cells were treated with test compound dilutions and then incubated for 48 h. HPV origin plasmid replication was detected after digestion with DpnI and exonuclease III to remove unreplicated transfected plasmids. Remaining replicated DNA was quantified by quantitative real time PCR (qPCR). In a parallel experiment in uninfected cells cytotoxicity was determined by trypan blue exclusion or CELLTITER-GLO® to find the concentration that reduced viable cell number by 50% (CC50). CC50 values were determined by trypan blue exclusion or CELLTITER-GLO® and the selectivity index calculated (Selectivity index=CC50/EC50). The low risk HPV tested was HPV-11, and the high-risk HPV tested was HPV-16 and HPV-18.

[1] = Cytotoxicity assay in HEK-293 cells (CELLTITER-GLO); format: cell-based; conditions: human; for CC50 at 2 d: Table 3, CELLTITER-GLO, 2 d incubation; for CC50 at 48 h: Table B, parallel to HPV-11 antiviral assay
Experimental: as §1
Cytotoxicity Assays in HEK-293 cells. Cytotoxicity assays are performed in concurrently with every antiviral assay using the same cell line and media to ensure the same compound exposure. For the antiviral studies against HPV11 in HEK-293 cells, transfected cells are seeded in duplicate plates. Following a 2 h exposure, compound dilutions are prepared in both the antiviral plate and the duplicate cytotoxicity plate. At 48 h following compound addition, CELLTITE-GLO® (Promega) is added to each well and luminescence is determined on a luminometer. Concentrations of compounds sufficient to reduce cell viability by 50% are calculated from the experimental data (CC50 values).

[2] = Cytotoxicity assay in primary human foreskin fibroblast cells (CELLTITER-GLO); format: cell-based; conditions: Table 3, CELLTITER-GLO, 7 d incubation
Experimental: Cytotoxicity Assays in Primary Human Foreskin Fibroblast Cells. Cytotoxicity was also evaluated in human foreskin fibroblast (HFF) cells as they are a highly sensitive indicator of toxicity in a standard assay with 7 d of compound exposure. A total of 4000 cells/well are seeded in 384-well plates in cell culture media containing 2% fetal bovine serum and antibiotics. Following a 24 h incubation, 5-fold compound dilutions are performed in duplicate wells directly in the plates containing monolayers of HFF cells. At 7 d following compound addition, CELLTITER-GLO® reagent is added to each well and resulting luminescence is measured on a luminometer to assess the number of viable cells in each well. Data are then used to calculate CC50 values.

HPV-16 and HPV-18 = assay: High risk HPV assay: HPV origin plasmid replication in HEK 293 cells (qPCR); format: cell-based, human papillomavirus; conditions: read-out: EC50 High Risk
Experimental: as §1

[3] = Human papillomavirus, HEK293, Antiviral activity against HPV-11 in HEK-293 cells, read-out: EC50
[4] = Human papillomavirus, HEK293, Antiviral activity against HPV-11 in HEK-293 cells, read-out: EC90
[5] = primary human foreskin fibroblast (HFF) cells
[6] = low risk HPV (HPV-11), HEK 293 cells, 48 h incubation, read-out: EC50 Low Risk

| Structure (SMILES) | EC50 (HPV-11; [3]) [µM] | EC90 (HPV-11; [4]) [µM] | CC50 at 2 d ([1]; HEK-293 cells) [µM] | CC50 at 48 h ([1]; HEK-293 cells) [µM] | CC50 at 7 d [2, 5] [µM] | also measured |
| --- | --- | --- | --- | --- | --- | --- |
| Nc1ccn(C[C@@H](CO)OCP(=O)(O)O)c(=O)n1 [Cidofovir, cidofovir, reference compound] | 41.7 ± 12 | > 300 | > 300 | > 300 | > 300 |  |
| CCCCCCCCCCCCCCCCCCOCC(COP(=O)(O)COCCn1cnc2c(=O)[nH]c(N)nc21)OCc1ccccc1 (stereo not drawn) [ODBG-PMEG, 1-O-Octadecyl-2-O-benzyl-sn-glyceryl PMEG] |  |  |  |  |  | EC50 (HPV-11; Human papillomavirus, HEK293, low risk HPV (HPV-11), HEK 293 cells, 48 h incubation, read-out: EC50 Low Risk): 0.3 to 3.09 µM; EC50 (HPV-16 and HPV-18; Human papillomavirus, HEK293, 48 h): 0.3 to 3.09 µM |
| CCCCCCCCCCCCCCCCCCOCCOP(=O)(COCCn1cnc2c(=O)[nH]c(N)nc21)OCc1ccc(OC)c(Cl)c1 (stereo not drawn) [ODE-(3-Cl-4-OMe-Bn)-PMEG] | 0.68 ± 0.62 | 1.34 ± 0.78 | 8.87 ± 1.2 | 8.31 ± 1.83 | 2.27 ± 0.51 |  |
| CCCCCCCCCCCCCCCCCCOCCOP(=O)(COCCn1cnc2c(=O)[nH]c(N)nc21)OCc1cccc(Cl)c1 (stereo not drawn) [ODE-(3-Cl-Bn)-PMEG] | 0.22 ± 0.19 | > 0.4 | 1 ± 0.16 | 1.11 ± 0.27 | 4.65 ± 1.73 |  |
| CCCCCCCCCCCCCCCCCCOCCOP(=O)(COCCn1cnc2c(=O)[nH]c(N)nc21)OCc1ccc(OC)c(F)c1 (stereo not drawn) [ODE-(3-F-4-OMe-Bn)-PMEG] | 0.18 ± 0.04 | 0.99 ± 0.13 | 13.1 ± 5.17 | 14.2 ± 9.48 | 1.72 ± 0.66 |  |
| CCCCCCCCCCCCCCCCCCOCCOP(=O)(COCCn1cnc2c(=O)[nH]c(N)nc21)OCc1cccc(F)c1 (stereo not drawn) [ODE-(3-F-Bn)-PMEG] | 0.26 | 1.59 ± 0.57 | 2.16 ± 0.36 | 1.74 ± 0.03 | 6.88 ± 4.92 |  |
| CCCCCCCCCCCCCCCCCCOCCOP(=O)(COCCn1cnc2c(=O)[nH]c(N)nc21)OCc1ccc(C)cc1 (stereo not drawn) [ODE-(4-Me-Bn)-PMEG] | 0.93 ± 0.91 | 7 ± 3.45 | 32 ± 8.14 | 23.8 ± 19.5 | 6.02 ± 3.79 |  |
| CCCCCCCCCCCCCCCCCCOCCOP(=O)(O)COCCn1cnc2c(=O)[nH]c(N)nc21 [ODE-PMEG, Octadecyloxyethyl-Phosphonomethoxyethylguanine, reference compound] |  |  |  |  |  | EC50 (HPV-11; [6]): < 0.3 µM; EC50 (HPV-16 and HPV-18; high risk HPV (HPV-16 and HPV-18), HEK 293 cells, 48 h incubation): < 0.3 µM |
| CCOC(=O)[C@H](C)NP(=O)(COCCn1cnc2c(=O)[nH]c(N)nc21)N[C@@H](C)C(=O)OCC [PMEG bisamidate, 9-[2-(bis-(ethyloxy-L-alaninyl)-phosphonomethoxy)ethyl]guanine] | 5.04 ± 7.01 | > 100 | > 100 | > 100 | > 100 |  |
| CCOC(=O)[C@H](C)NP(=O)(COCCn1cnc2c(=O)[nH]c(N)nc21)Oc1ccccc1 (stereo partly drawn) [PMEG phenoxy amidate] |  |  |  | > 100 |  | EC50 (HPV-11; Human papillomavirus, HEK293): 7.56 ± 0.63 µM; EC90 (HPV-11; Human papillomavirus, HEK293): > 100 µM; CC50 at 2 d [1]: > 100 µM; CC50 at 7 d ([2]; read-out: CC50 HFF (7 d incubation)): 70.9 ± 4.07 µM |
| Nc1nc2c(ncn2CCOCP(=O)(O)O)c(=O)[nH]1 [PMEG, 9-(2-phosphonylmethoxyethyl)guanine, reference compound] |  |  |  |  |  | EC50 (HPV-11; [6]): 3 to 30 µM |
